Article PMC11378298 (ACS Chemical Neuroscience, 2024)

Assays:
GSK-3β [1] = biological target: T1, GSK-3β (Homo sapiens, UniProt P49841); experiment: biochemical
Experimental: (§1) We evaluated the pharmacological properties of the compounds in vitro against GSK-3β using the GSK-3β Kinase Enzyme System followed by ADP-Glo bioluminescent assay.[50] The principle of the assay is to determine the amount of ADP formed from ATP in the kinase reaction. […] Additionally, compounds 11 and 36 in complex with GSK-3β were analyzed by the proteins’ melting temperature determination using Thermal Shift Assay (see Figure S1 in the SI).
The inhibitory activities of the tested compounds against the GSK-3β human recombinant kinase were measured using Promega’s GSK-3β Kinase Enzyme System (Promega; Madison, WI, USA), according to the provided manufacturer’s instruction, using the low-volume white polystyrene 384-well plates. The ADP-Glo Assay (Promega; Madison, WI, USA) was used for bioluminescent detection of the kinase activity. Tested compounds were prepared as 1 mM stock solutions in DMSO and diluted with the Kinase Assay Buffer before use (40 mM Tris, pH 7.5, enriched with 50 μM dithiothreitol; DTT) to obtain the desired compounds’ concentrations. The kinase enzyme, GSK-3β-substrate (derived from human muscle glycogen synthase 1), and ATP were also diluted in the assay buffer before use. At first, GSK-3β (10 ng per well) was incubated with the tested sample (10 μM in well) for 5 min. In the case of blank wells, the DMSO solution (1% in well) was used instead of the target samples’ solutions. After the incubation period, ATP (25 μM in well) and GSK-3β-substrate (0.2 μg/μL in well) were added to start the enzymatic reaction. The reaction mixture was kept at room temperature for 1 h, followed by the addition of the ADP-Glo reagent, to terminate the kinase reaction and deplete any remaining ATP. After the following 40 min—a second reagent (Kinase Detection Reagent) was applied to convert the obtained ADP to ATP and to generate light from the newly synthesized ATP using a luciferase/luciferin reaction. The mixture was kept for another 30 min at room temperature, then the luminescence was measured. Based on equation 100 – (S/B) × 100 (where S and B were the respective enzyme activities with and without the tested sample, respectively) the percent of inhibition of GSK-3β for each compound was calculated. […] Calculations were made using nonlinear regression (GraphPad Prism 9; GraphPad Software, San Diego, CA, USA) by plotting the residual enzyme activities against the applied inhibitor concentration. […] Each data point was collected in triplicate.
Target sequence in this assay (P49841 whole entry): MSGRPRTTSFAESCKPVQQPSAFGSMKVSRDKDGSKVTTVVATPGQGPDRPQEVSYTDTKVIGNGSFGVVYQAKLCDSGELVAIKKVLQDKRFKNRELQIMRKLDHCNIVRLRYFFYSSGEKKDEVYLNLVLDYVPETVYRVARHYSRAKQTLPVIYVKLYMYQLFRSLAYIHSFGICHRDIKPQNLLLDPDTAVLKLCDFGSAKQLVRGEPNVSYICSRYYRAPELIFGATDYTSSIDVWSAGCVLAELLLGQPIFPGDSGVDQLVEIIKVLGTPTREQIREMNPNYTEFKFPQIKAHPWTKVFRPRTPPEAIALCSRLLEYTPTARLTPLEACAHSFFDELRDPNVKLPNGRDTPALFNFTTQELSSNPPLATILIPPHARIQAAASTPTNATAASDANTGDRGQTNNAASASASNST

GSK-3β [2] = biological target: T1, GSK-3β; experiment: biochemical; conditions: read-out: increase of the melting point of the protein
Experimental: as §1
Target sequence in this assay (P49841 26-383): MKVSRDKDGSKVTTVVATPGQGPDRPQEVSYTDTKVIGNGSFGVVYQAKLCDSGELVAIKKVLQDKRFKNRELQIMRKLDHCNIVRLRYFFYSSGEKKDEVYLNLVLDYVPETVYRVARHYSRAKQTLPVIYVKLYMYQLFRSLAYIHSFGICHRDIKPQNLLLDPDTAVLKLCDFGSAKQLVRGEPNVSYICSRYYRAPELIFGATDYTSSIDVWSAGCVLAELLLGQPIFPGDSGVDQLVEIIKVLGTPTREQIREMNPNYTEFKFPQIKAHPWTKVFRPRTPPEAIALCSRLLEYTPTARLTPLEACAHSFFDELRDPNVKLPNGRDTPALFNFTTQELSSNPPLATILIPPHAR

[3] = Cytotoxicity in HT-22 cells (PrestoBlue); conditions: mouse, HT-22 hippocampal neuronal cells
Experimental: The compounds were tested at 5 concentrations (0.1, 1, 10, 50, and 100 μM).
Mouse Hippocampal Neuronal Cell Line (HT-22) was a generous gift from Dr Bartosz Pomierny of the Department of Biochemical Toxicology, Jagiellonian University Medical College, Krakow, Poland. Cells were cultured in Dulbecco’s modified Eagle’s Medium—high glucose (DMEM, Glutamax Thermo Fisher) supplemented with 10% heat-inactivated fetal bovine serum (Thermo Fisher), 100 IU/mL penicillin (Merck) and 100 μg/mL streptomycin (Merck). Cells were cultured in flasks (area 175 cm^2, Nunc), and incubated at 37 °C, 5% CO2. For the measurement of cell viability and neuroprotective effect against okadaic acid cells were placed in a 96-well culture plate (2 × 10^4 cells per well, Falcon). Before the tests, cells were grown for 24 h in the incubator (37 °C, 5% CO2).
Cell viability was evaluated using the PrestoBlue reagent (ThermoFisher), according to the manufacturer’s procedures.[87] Following 24 h of incubation with the tested molecule, PrestoBlue reagent was added to a microplate well in an amount equal to one-tenth of the remaining medium volume. The resulting mixture was incubated for 15 min at 37 °C, and the fluorescence intensity (EX 530 nm; EM 580 nm) was measured in the plate reader POLARstar Omega, (BMG Labtech).

BV-2 cell line = experiment: TNF-α release in LPS-treated BV-2 cells (LANCE Ultra TR-FRET); format: cell-based, mouse; conditions: compound 10 μM; LPS 100 ng/mL
Experimental: Cell viability was determined by Presto Blue assay after 24 h. (B) Effect of compounds 11, 34, and 36 (0.1, 1, 10 μM) on NO-release (%) in LPS-treated (100 ng/mL) BV-2 cell line. NO-release was measured using a fluorometric assay with 2,3-diaminonaphthalene (DAN). (C, D) Effects of compounds 11 and 36 (0.1, 1, 10 μM) on IL-6 and TNF-α release in LPS-treated (100 ng/mL) BV-2 cell line. The IL-6 and TNF-α levels were measured using LANCE Ultra TR-FRET Detection Kit (PerkinElmer). Statistical analysis was performed using GraphPad Prism 9.0.0. All values are expressed as mean with SD. Differences among groups were evaluated by one-way ANOVA followed by posthoc analysis (Dunnett’s multiple comparison tests) vs. control group (LPS on BV-2 cells and okadaic acid on HT-22 cells) and were considered statistically significant if p < 0.05 (*p < 0.05, **p < 0.01, ***p < 0.001, and ****p < 0.0001). […]
The IL-6 and TNF-α levels in the culture supernatants were measured using LANCE Ultra TR-FRET Detection Kit (PerkinElmer), according to manufacturer protocol. […] After 1 h of incubation of IL-6 and 3h for incubation of TNF-α in the dark, at 22 °C, the plates were read with an EnVision plate reader (PerkinElmer) with the excitation wavelength at 320 nm, the donor emission at 615 nm, and the acceptor emission at 660 nm. […]

in vitro = conditions: PAMPA

| Compound | IC50 (GSK-3β [1]) [µM] | ΔTm at 10 µM (GSK-3β [2]) [°C] | IC50 at 24 h [3] [µM] | TNF-α release (BV-2 cell line) | Papp (in vitro) [×10⁻⁶ cm/s] |
| --- | --- | --- | --- | --- | --- |
| NC(=O)N1CC=C(c2ccnc(NC(=O)C3CC3)c2)C1 [Compound 11, 3-(2-(Cyclopropanecarboxamido)pyridin-4-yl)-2,5-dihydro-1H-pyrrole-1-carboxamide] | 0.141 ± 0.005 | 13 | 45.8 ± 9.7 | significantly reducing the release | 0.53 ± 0.82 |
| O=C(Nc1cc(-c2ccc(-c3ncon3)s2)ccn1)C1CC1 [Compound 36, N-(4-(5-(1,2,4-Oxadiazol-3-yl)thiophen-2-yl)pyridin-2-yl)cyclopropanecarboxamide] | 0.07 ± 0.001 | 14 | > 100 | significantly reducing the release | 9.4 ± 0.89 |
